From the supplement of paper PMC10307832

Experiments:
Assay in all cases: relative viability (nuclei count vs DMSO), 5 days (fraction); higher = more cells survive
NCI-H1993 = system: NCI-H1993
Summary of the method: (§1)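 Medians of duplicate plates are given as relative viability. That measure is the nuclei count in treated wells divided by the count in vehicle wells. Counts were taken on 4× images of lung cancer cell lines in 1536-well plates, 5 days after pin-tool dosing the day after seeding with one drug alone or a fixed anchor-drug dose plus five library-drug doses (not always all listed) in √10 steps.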

EMC-BAC-2 = system: EMC-BAC-2
Summary of the method: as §1

EPLC-272H = system: EPLC-272H
Summary of the method: as §1

HCC-44 = system: HCC-44
Summary of the method: as §1

NCI-H2087 = system: NCI-H2087
Summary of the method: as §1

NCI-H23 = system: NCI-H23
Summary of the method: as §1

LCLC-97TM1 = system: LCLC-97TM1
Summary of the method: as §1

NCI-H2405 = system: NCI-H2405
Summary of the method: as §1

NCI-H2085 = system: NCI-H2085
Summary of the method: as §1

NCI-H1355 = system: NCI-H1355
Summary of the method: as §1

H3255 = system: H3255
Summary of the method: as §1

ChaGo-K-1 = system: ChaGo-K-1
Summary of the method: as §1

NCI-H322M = system: NCI-H322M
Summary of the method: as §1

NCI-H520 = system: NCI-H520
Summary of the method: as §1

LCLC-103H = system: LCLC-103H
Summary of the method: as §1

UMC-11 = system: UMC-11
Summary of the method: as §1

NCI-H650 = system: NCI-H650
Summary of the method: as §1

NCI-H1651 = system: NCI-H1651
Summary of the method: as §1

HCC-827 = system: HCC-827
Summary of the method: as §1

NCI-H1563 = system: NCI-H1563
Summary of the method: as §1

`COc1cc(N2CCC(C(N)=O)CC2)ccc1Nc1nc(N)c(Cl)c(Nc2ccccc2S(=O)(=O)C(C)C)n1` [HG-5-88-01] + CC(C)C[C@H](NC(=O)[C@H](Cc1ccccc1)NC(=O)c1cnccn1)B(O)O [Bortezomib] (partner 0.002 µM) showed a relative viability (NCI-H1993; first compound 0.04 µM) of 1.08, a relative viability (NCI-H1993; first compound 0.1265 µM) of 1.08 and a relative viability (NCI-H1993; first compound 0.4 µM) of 0.971. The relative viability (NCI-H1993; first compound 1.265 µM) was 0.819, the relative viability (NCI-H1993; first compound 4 µM) was 1.02 and the relative viability (EMC-BAC-2; first compound 0.04 µM) was 1.07. It also gave a relative viability (EMC-BAC-2; first compound 0.1265 µM) of 1.06, a relative viability (EMC-BAC-2; first compound 0.4 µM) of 1.04 and a relative viability (EMC-BAC-2; first compound 1.265 µM) of 1.09. For the same molecule, the relative viability (EMC-BAC-2; first compound 4 µM) was 0.931, the relative viability (EPLC-272H; first compound 0.04 µM) was 0.854 and the relative viability (EPLC-272H; first compound 0.1265 µM) was 0.941. It also gave a relative viability (EPLC-272H; first compound 0.4 µM) of 1, a relative viability (EPLC-272H; first compound 1.265 µM) of 0.851 and a relative viability (EPLC-272H; first compound 4 µM) of 0.385. For the same molecule, the relative viability (HCC-44; first compound 0.04 µM) was 0.901, the relative viability (HCC-44; first compound 0.1265 µM) was 0.868 and the relative viability (HCC-44; first compound 0.4 µM) was 0.679. It also gave a relative viability (HCC-44; first compound 1.265 µM) of 0.832, a relative viability (HCC-44; first compound 4 µM) of 0.754 and a relative viability (NCI-H2087; first compound 0.04 µM) of 0.818. For the same molecule, the relative viability (NCI-H2087; first compound 0.1265 µM) was 0.692, the relative viability (NCI-H2087; first compound 0.4 µM) was 0.713 and the relative viability (NCI-H2087; first compound 1.265 µM) was 1.01. It also gave a relative viability (NCI-H2087; first compound 4 µM) of 0.934, a relative viability (NCI-H23; first compound 0.04 µM) of 0.954 and a relative viability (NCI-H23; first compound 0.1265 µM) of 1.02. For the same molecule, the relative viability (NCI-H23; first compound 0.4 µM) was 0.91, the relative viability (NCI-H23; first compound 1.265 µM) was 1.12 and the relative viability (NCI-H23; first compound 4 µM) was 0.629. For the same molecule, the relative viability (LCLC-97TM1; first compound 0.04 µM) was 1.05, the relative viability (LCLC-97TM1; first compound 0.1265 µM) was 0.313 and the relative viability (LCLC-97TM1; first compound 0.4 µM) was 0.308. The relative viability (LCLC-97TM1; first compound 1.265 µM) was 0.546, the relative viability (LCLC-97TM1; first compound 4 µM) was 0.213 and the relative viability (NCI-H2405; first compound 0.04 µM) was 1.01. For the same molecule, the relative viability (NCI-H2405; first compound 0.1265 µM) was 0.977, the relative viability (NCI-H2405; first compound 0.4 µM) was 0.929 and the relative viability (NCI-H2405; first compound 1.265 µM) was 0.933. For the same molecule, the relative viability (NCI-H2405; first compound 4 µM) was 0.946, the relative viability (NCI-H2085; first compound 0.04 µM) was 0.986 and the relative viability (NCI-H2085; first compound 0.1265 µM) was 1.13. It also gave a relative viability (NCI-H2085; first compound 0.4 µM) of 0.922, a relative viability (NCI-H2085; first compound 1.265 µM) of 1.01 and a relative viability (NCI-H2085; first compound 4 µM) of 0.917. For the same molecule, the relative viability (NCI-H1355; first compound 0.04 µM) was 1.37, the relative viability (NCI-H1355; first compound 0.1265 µM) was 1.37 and the relative viability (NCI-H1355; first compound 0.4 µM) was 1.21. The relative viability (NCI-H1355; first compound 1.265 µM) was 1.14, the relative viability (NCI-H1355; first compound 4 µM) was 0.96 and the relative viability (H3255; first compound 0.04 µM) was 0.748. It also gave a relative viability (H3255; first compound 0.1265 µM) of 0.745, a relative viability (H3255; first compound 0.4 µM) of 0.75 and a relative viability (H3255; first compound 4 µM) of 0.388. For the same molecule, the relative viability (ChaGo-K-1; first compound 0.04 µM) was 1.11, the relative viability (ChaGo-K-1; first compound 0.1265 µM) was 0.983 and the relative viability (ChaGo-K-1; first compound 0.4 µM) was 0.976. The relative viability (ChaGo-K-1; first compound 1.265 µM) was 1.02, the relative viability (ChaGo-K-1; first compound 4 µM) was 0.785 and the relative viability (NCI-H322M; first compound 0.04 µM) was 1.22. For the same molecule, the relative viability (NCI-H322M; first compound 0.1265 µM) was 1.04, the relative viability (NCI-H322M; first compound 0.4 µM) was 1.38 and the relative viability (NCI-H322M; first compound 1.265 µM) was 1.23. It also gave a relative viability (NCI-H322M; first compound 4 µM) of 1.08, a relative viability (NCI-H520; first compound 0.04 µM) of 0.45 and a relative viability (NCI-H520; first compound 0.1265 µM) of 0.633. For the same molecule, the relative viability (NCI-H520; first compound 0.4 µM) was 0.304, the relative viability (NCI-H520; first compound 1.265 µM) was 0.698 and the relative viability (NCI-H520; first compound 4 µM) was 0.546. The relative viability (LCLC-103H; first compound 0.04 µM) was 1.02, the relative viability (LCLC-103H; first compound 0.1265 µM) was 0.995 and the relative viability (LCLC-103H; first compound 0.4 µM) was 0.913. The relative viability (LCLC-103H; first compound 1.265 µM) was 1.01, the relative viability (LCLC-103H; first compound 4 µM) was 1.01 and the relative viability (UMC-11; first compound 0.04 µM) was 0.769. It also gave a relative viability (UMC-11; first compound 0.1265 µM) of 0.82, a relative viability (UMC-11; first compound 0.4 µM) of 0.642 and a relative viability (UMC-11; first compound 1.265 µM) of 0.837. For the same molecule, the relative viability (UMC-11; first compound 4 µM) was 0.494, the relative viability (NCI-H650; first compound 0.04 µM) was 0.844 and the relative viability (NCI-H650; first compound 0.1265 µM) was 0.767. It also gave a relative viability (NCI-H650; first compound 0.4 µM) of 0.711, a relative viability (NCI-H650; first compound 1.265 µM) of 0.815 and a relative viability (NCI-H650; first compound 4 µM) of 0.381. For the same molecule, the relative viability (NCI-H1651; first compound 0.04 µM) was 0.844, the relative viability (NCI-H1651; first compound 0.1265 µM) was 0.935 and the relative viability (NCI-H1651; first compound 0.4 µM) was 0.941. The relative viability (NCI-H1651; first compound 1.265 µM) was 0.976, the relative viability (NCI-H1651; first compound 4 µM) was 1.03 and the relative viability (HCC-827; first compound 0.04 µM) was 1.07. It also gave a relative viability (HCC-827; first compound 0.1265 µM) of 1.05, a relative viability (HCC-827; first compound 0.4 µM) of 1.06 and a relative viability (HCC-827; first compound 1.265 µM) of 1.14. The relative viability (HCC-827; first compound 4 µM) was 0.472, the relative viability (NCI-H1563; first compound 0.04 µM) was 0.827 and the relative viability (NCI-H1563; first compound 0.1265 µM) was 0.92. It also gave a relative viability (NCI-H1563; first compound 0.4 µM) of 0.925, a relative viability (NCI-H1563; first compound 1.265 µM) of 0.765 and a relative viability (NCI-H1563; first compound 4 µM) of 0.855.
